One test concerns human monocytes. The test is described as follows: In vitro model of human innate immunity inflammation: morphology and viability by light microscopy. The settings on record: 300 μM, added 20 minutes before LPS, IL-10 and TGF-β; images at 2 h, 14 h, 24 h, 48 h; one donor, preliminary. Format: cell-based. The text has this: FIG. 13—The in vitro model of human innate immunity inflammation. Schematic representation and timing of the in vitro stimulation of human monocytes. In order to mimic the microenvironmental changes and the timing of human host response that covers the different phases of the inflammatory reaction, from recruitment and onset, to development and resolution of inflammation, cultured cells have been exposed to sequential changes of microenvironmental conditions. Monocytes in culture were exposed to chemokine C-C motif ligand 2 (CCL2), responsible for monocytes recruitment to sites of injury through endothelial cells adhesion, lipopolysaccharide (LPS), as a pathogen insult, tumor necrosis factor α (TNFα) and interferon γ (IFN-γ) as inducers of acute phase of inflammation and finally with interleukin 10 (IL-10) and transforming growth factor β (TGF-β), responsible for the resolution of inflammation. In detail: at time zero freshly isolated human monocytes were exposed to CCL2 (20 ng/ml) at 37° C. […]
Freshly isolated human monocytes, which have been used for all the above-mentioned experiments, were purified from buffy coat prepared at I.N.T. Pascale in Naples. […] The viability of cells was determined by trypan blue staining. The purity of isolated cells (98%) was microscopically detected after centrifugation and staining with modified Wright-Giemsa dye (Diff Quick, Medion Diagnostic AG). […]

In another test the test system is IL-1β. The test is described as follows: ELISA of IL-1β in medium of LPS-stimulated monocytes. Format: cell-based, human. The settings on record: 300 μM. Here is the method: FIG. 5—The inhibitory effects of GroPIns are also evident at the protein expression level. Purified monocytes (4×10^3 cells/sample) were pre-incubated for 20 min at 37° C. in the absence and presence of 300 μM GroPIns, and then for a further 5 h and 24 h without or with 0.1 μg/ml LPS from E. coli. At the end of this incubation, the levels of TNFα, IL-1β and TxB-2 in the medium were assessed by ELISA. In monocytes alone, the protein concentrations were under the assay detection limits at both the times. The data are representative of three independent experiments performed with cells from different donors. Exposure of monocytes to LPS induced a time-dependent increase in the […] levels of all of the cytokines analysed.
Cellular levels of TNFα, IL-1β and TxB-2 were quantified by enzyme-linked immunosorbent assay (ELISA). Conditioned medium from monocytes was sedimented by centrifugation at 300×g at room temperature for 10 min to eliminate cellular debris. Then, the supernatant was recovered and the concentrations of TNFα, IL-1β and TxB-2 were assessed by ELISA, as specified by the manufacturers (Amersham Pharmacia Biotech (NJ, USA).

Regarding `O=P(O)(OCC(O)CO)OC1C(O)C(O)C(O)C(O)C1O` (stereo not drawn) [GroPIns, glycerophosphoinositol], in the test on human monocytes, the “cellular viability (light microscopy)” value is on record as “cellular viability increased”. Also, the “level of IL-1β in the medium” value in the test on IL-1β (0.1 μg/ml LPS for 5 h) is recorded as “very small effects”; with IL-1β (0.1 μg/ml LPS for 24 h), “significantly reduced”.

Source of the values: US9351983B2, “Use of glycerophosphoinositols for the treatment of septic shock” (CONSIGLIO NAZIONALE DELLE RICERCHE, priority 2012, dated 2016).
